{
  "source": "patent US20140288010A1",
  "about": "“Compositions and Methods for Increasing Stem Cell Survival” (Georgia Regents Research Institute, Inc., priority 2013, published 2014)",
  "key": {"LC3B, p62, pERK": {"test_system": "LC3B, p62, pERK", "test": "Western blot of LC3B, p62 and pERK in aged MSCs (autophagy and MAPK pathway)", "assay_type": "cell-based, mouse", "from_the_text": "Low passage MSCs from 18 and 24 month old adult male C57BL/6 mice, procured from the GHSU Institute of Regenerative and Reparative Medicine Stem Cell Core (IRRM-SSC) were used.\nRedistribution of LC3B from cytosol (18 kDa) to an autophagosome (16 kDa) is an indication of autophagy induction. P62, also known as sequestosome 1/SQSTM1, is a ubiquitously expressed protein, best characterized for selective autophagy, directly interacts with LC3B on the phagophore through the LC3-interacting region and then degraded."}, "18 month MSCs [1]": {"test_system": "18 month MSCs", "test": "Osteogenic differentiation of MSCs, Alizarin red staining for calcium deposition", "assay_type": "cell-based, mouse", "conditions": "for increase of Alizarin red staining for calcium compared to control cells: osteogenic differentiation of MSCs, terminal stages", "from_the_text": "(§1) Low passage MSCs from 18 and 24 month old adult male C57BL/6 mice, procured from the GHSU Institute of Regenerative and Reparative Medicine Stem Cell Core (IRRM-SSC) were used. This age range was chosen based on associated changes in bone formation and mass in the comparatively aged mice (Zhang, et al., Journal of Bone and Mineral Research, 23:1118-1128 (2008)).\nTo determine the influence of modulating SDF-1 signaling in osteogenic differentiation of 18 month MSCs, the calcium deposition at the terminal stages of differentiation was measured. […] However, the SDF-1β stimulated calcium-staining was reduced by ˜8 fold (FIG. 9B) with co-treatment with C1.SDF-10."}, "SDF-1": {"test_system": "SDF-1", "test": "qRTPCR of SDF1β, CXCR4 and LC3B mRNA in MSCs after metformin treatment", "assay_type": "cell-based, mouse", "conditions": "MSCs treated with metformin compared to controls"}, "18 month MSCs [2]": {"test_system": "18 month MSCs", "test": "Transwell migration of 18 month MSCs", "assay_type": "cell-based, mouse", "conditions": "6 hours treatment", "from_the_text": "The data shown are averages of quadruplicate wells. Bar graph represents RFU of migrated cells normalized to vehicle control group +/−SEM. *p<0.05 verse control group.\nas §1\n(§2) Recombinant active SDF-1β (i.e. full length amino acids 1-72; 100 ng/mL; Peprotech), Recombinant Mouse DPPIV/CD26 enzyme (0.01 μg; R&D) cleaved (Cl.) SDF-1β (aa3-72; 100 ng/mL) (Christopherson, et al., Blood, 101:4680-4686 (2003)), and AMD3100 (400 μM; R&D), an antagonist of SDF-1/CXCR4 axis (Liu, et al., Protein & Cell, 2:845-854 (2011)).\nThe migration efficiency of 18 month MSCs in response to SDF-1β, its cleaved form and AMD3100, as a positive control, was tested using a transwell migration system."}, "AMPK-α1 and LC3B": {"test_system": "AMPK-α1 and LC3B", "test": "qRTPCR of AMPK-α1 and LC3B mRNA in MSCs", "assay_type": "cell-based, mouse", "conditions": "24 month MSCs; 100 ng/ml for 48 hours", "protocol": "FIG. 7 is bar graph showing the results of an assay measuring the level of AMPK-alpha1 and LC3B mRNA in 24 month MSCs control cells and cells treated with 100 ng/ml of active SDF-1β for 48 hours. *p<0.05 compared to control group.\nas §1, §2"}, "BMSCs [3]": {"test_system": "BMSCs", "test": "Cell viability after H2O2 treatment by trypan blue exclusion staining", "assay_type": "cell-based, mouse", "conditions": "1.0 mM H2O2 for 6 h; p<0.001", "from_the_text": "BMSCs were transduced with retroviral Tet-Off expression vectors. The sequential protocol of retrovirus production, two-step infection, and selection to generate double-stable Tet-Off-SDF-1β BMSCs and Tet-Off-EV control BMSCs has been described previously (Herberg, et al., Tissue Eng Part A, 19:1-13 (2013)). In brief, 293GPG packaging cells (Ory, et al., Proc. Natl. Acad. Sci. USA, 93:11400-11406 (1996)) were transfected at passage 8 with retroviral Tet-Off expression vectors containing the SDF-1β coding sequence, or empty control (cat#632105) (Clontech Laboratories, Mountain View, Calif., USA). […]\nThe viability of BMSCs in response to H2O2 treatment was analyzed using standard trypan blue exclusion staining Cells were washed with PBS, lifted with trypsin/EDTA, and resuspended with normal growth medium. Following 1:5 dilution, BMSC suspensions were mixed with an equal volume of 0.4% trypan blue staining solution (cat#15250061) (Gibco, Invitrogen), and counted in 5 inner squares using a hemacytometer with cover slip (Hausser Scientific, Horsham, Pa., USA).\nBMP receptor signaling was assessed by Western blot. […] Serum-starved Jurkat cells or BMSCs at 5.0-8.0×10^5 cells/ml in upper chambers were allowed to migrate across the 8-μm membranes for 4-8 h prior to quantifying total DNA with CyQuant GR dye at 485/535 nm. […] Autophagy was evaluated by Western blot for LC3-II."}, "[4]": {"test_system": "Smad1/5/8-mediated BMP-2 signal transduction", "test": "BMP receptor signaling by Western blot ((p)Erk1/2, (p)Smad1/5/8) in BMSCs", "assay_type": "cell-based, mouse", "conditions": "for effect of pretreatment on SDF-1β potentiation of BMP-2 signal transduction: pretreatment 4 h, 600 μM AMD3100 or 50 μM U0126, before 300 ng/ml BMP-2", "from_the_text": "FIGS. 17A and 17D are images of autoradiograms of western blots detecting pErk 1/2, Erk1/2, pSmad 1/5/8, Smad 1/5/8, and beta-actin (loading control) of isolated BMSC cells: Tet-Off-SDF-1β with and without Dox, BMP2, AMD3100, U0126, and combinations thereof (FIG. 17A) and Tet-Off-EV controls with and without Dox, BMP2, AMD3100, U0126, and combinations thereof (FIG. 17D). FIGS. 17B-C and 17E-F are bar graphs showing densitometry quantification of immunoreactive bands of FIGS. 17A and 17D as a ratio of pErk 1/2 to Erk1/2 (17B and 17E) and pSmad 1/5/8 to Smad 1/5/8 (17C and 17F).\n(§3) BMP receptor signaling was assessed by Western blot. Serum-starved BMSCs were pretreated with 600 μM AMD3100, 50 μM U0126, or vehicle for 4 h prior to stimulation with 300 ng/ml BMP-2 for 30 min. Whole cell lysates were subjected to SDS-PAGE, electroblotted onto PVDF membranes, and probed for (p)Erk1/2 and (p)Smad1/5/8. Transwell migration assays were performed using conditioned media from genetically engineered BMSCs in lower chambers. Serum-starved Jurkat cells or BMSCs at 5.0-8.0×10^5 cells/ml in upper chambers were allowed to migrate across the 8-μm membranes for 4-8 h prior to quantifying total DNA with CyQuant GR dye at 485/535 nm. Apoptosis was induced with 1.0 mM H2O2 for 6 h. Cell death was quantified by trypan blue staining and Western blot analysis of cleaved caspase-3 and PARP. Autophagy was evaluated by Western blot for LC3-II."}, "BMSCs [5]": {"test_system": "BMSCs", "test": "Transwell migration toward conditioned media from genetically engineered BMSCs, BMSCs", "assay_type": "cell-based, mouse", "conditions": "4-8 h, p<0.01", "protocol": "as §3"}, "[6]": {"test_system": "CXCR4-expressing Jurkat cells", "test": "Transwell migration toward conditioned media from genetically engineered BMSCs, Jurkat cells", "assay_type": "cell-based", "conditions": "4-8 h, p<0.01", "protocol": "as §3"}, "CXCR4": {"biological_target": "CXCR4 (Mus musculus, UniProt P70658)", "sequence (P70658 whole entry)": "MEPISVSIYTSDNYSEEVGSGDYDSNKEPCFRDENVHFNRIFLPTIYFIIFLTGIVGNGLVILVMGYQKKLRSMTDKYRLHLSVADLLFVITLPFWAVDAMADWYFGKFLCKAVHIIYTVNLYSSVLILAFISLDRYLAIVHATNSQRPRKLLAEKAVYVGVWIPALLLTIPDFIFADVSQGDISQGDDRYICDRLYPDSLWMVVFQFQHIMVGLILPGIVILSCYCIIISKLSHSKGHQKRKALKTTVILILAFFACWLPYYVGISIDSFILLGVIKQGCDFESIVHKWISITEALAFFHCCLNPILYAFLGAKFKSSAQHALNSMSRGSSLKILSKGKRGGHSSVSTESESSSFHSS", "conditions": "BM supernatant of 3 or 18 month old mice normalized to 150 pg/ml SDF-1; both age groups", "protocol": "BM supernatant from 3 or 18 month old mice were normalized by dilution with saline to yield 150 pg/ml of SDF-1 as determined by ELISA. The normalized BM supernatant was added to the lower chamber and the cells (either pretreated with AMD3100 or not) were permitted to migrate for 6 hours."}},
  "data": [
    {"molecule": "CN(C)C(=N)N=C(N)N", "note": "[metformin]", "values": [
      {"measurement": "LC3B and p62 levels on further incubation", "setting": "LC3B, p62, pERK; 18 month and 24 month old MSCs, 24 or 48 h of metformin treatment", "value": "gradual reduction of LC3B and p62"},
      {"measurement": "increase of Alizarin red staining for calcium compared to control cells", "setting": "18 month MSCs [1]", "value": "~20", "unit": "fold"},
      {"measurement": "expression of endogenous SDF-1", "setting": "SDF-1", "value": "increase expression of endogenous SDF-1"}
    ]},
    {"molecule": "SDF-1β: Recombinant active SDF-1β, full length amino acids 1-72 (Peprotech); in Example 9 overexpressed in engineered BMSCs", "values": [
      {"measurement": "migration of MSCs in transwell migration system relative to control", "setting": "18 month MSCs [2]", "value": "strong migrating potential"},
      {"measurement": "AMPK-α1 and LC3B mRNA (qRTPCR)", "setting": "AMPK-α1 and LC3B", "value": "regulated autophagy at transcriptional level"},
      {"measurement": "LC3B and p62 levels on further incubation", "setting": "LC3B, p62, pERK; 18 month MSCs, 24 or 48 h, 100 ng/mL", "value": "gradual disappearance of LC3B and p62"},
      {"measurement": "effect on MAPK pathway and autophagy (LC3B distribution)", "setting": "LC3B, p62, pERK; 18 month MSCs, six hours of treatment, 100 ng/mL", "value": "led to MAPK pathway activation and induced autophagy by distributing LC3B"},
      {"measurement": "apoptosis-resistance in genetically engineered BMSCs", "setting": "BMSCs [3]", "value": "significant apoptosis-resistance"},
      {"measurement": "increase of Alizarin red staining for calcium compared to control cells", "setting": "18 month MSCs [1]", "value": "~20", "unit": "fold"},
      {"measurement": "Smad1/5/8-mediated BMP-2 signal transduction via Erk1/2 phosphorylation", "setting": "[4]; SDF-1β overexpressed in genetically engineered BMSCs, 300 ng/ml BMP-2 for 30 min, p<0.05", "value": "significantly potentiated"},
      {"measurement": "migratory response of BMSCs", "setting": "BMSCs [5]", "value": "significantly promoted"},
      {"measurement": "migratory response of CXCR4-expressing Jurkat cells", "setting": "[6]", "value": "significantly promoted"}
    ]},
    {"molecule": "N#CC(=C(/N)Sc1ccccc1N)/C(C#N)=C(\\N)Sc1ccccc1N", "note": "[U0126]", "values": [
      {"measurement": "effect of pretreatment on SDF-1β potentiation of BMP-2 signal transduction", "setting": "[4]", "value": "abolished"}
    ]},
    {"molecule": "c1cc(-c2cnn3cc(-c4ccc(OCCN5CCCCC5)cc4)cnc23)ccn1", "note": "[Compound C]", "values": [
      {"measurement": "osteogenic differentiation of MSCs (Alizarin red staining)", "setting": "18 month MSCs [1]", "value": "significantly reduced"}
    ]},
    {"molecule": "c1cc(CN2CCCNCCNCCCNCC2)ccc1CN1CCCNCCNCCCNCC1", "note": "[AMD3100]", "values": [
      {"measurement": "migration of MSCs in transwell migration system relative to control", "setting": "18 month MSCs [2]", "value": "suppressed"},
      {"measurement": "migration of MSCs toward BM supernatant after pretreatment of the cells", "setting": "CXCR4", "value": "blocked all migration"},
      {"measurement": "effect of pretreatment on SDF-1β potentiation of BMP-2 signal transduction", "setting": "[4]", "value": "abolished"}
    ]}
  ]
}
